Results from the NIST ThermoML archive (doi:10.1016/j.tca.2014.03.038).
Numbers after ± are expanded uncertainties.

What was measured:
[1] = 101.33 kPa, Liquid; for mass density: Pycnometric method; for speed of sound: multifrequency ultrasonic interferometer
[2] = xn = mol fraction of the nth substance listed; settings: 101 kPa, Liquid; for mass density: Pycnometric method; for speed of sound: multifrequency ultrasonic interferometer

CN(C)CCO [2-(N,N-dimethylamino)ethanol]
[1]
Settings | mass density [kg/m3] | speed of sound [m/s]
298.15 K | 883.34 ± 0.4 | 1344.4 ± 0.8
308.15 K | 874.99 ± 0.42 | 1309.1 ± 0.8
318.15 K | 866.37 ± 0.44 | 1274.1 ± 0.8

CN(C)CCO [2-(N,N-dimethylamino)ethanol] + CCO
[2]
Settings | mass density, 298.15 K [kg/m3] | mass density, 308.15 K [kg/m3] | mass density, 318.15 K [kg/m3] | speed of sound, 298.15 K [m/s] | speed of sound, 308.15 K [m/s] | speed of sound, 318.15 K [m/s]
x1 = 0.0929 | 803.31 ± 0.24 | 795.34 ± 0.27 | 787.23 ± 0.3 | 1172.7 ± 0.4 | 1141.5 ± 0.4 | 1109.4 ± 0.4
x1 = 0.1972 | 820.2 ± 0.26 | 812.45 ± 0.28 | 804.46 ± 0.31 | 1206.4 ± 0.5 | 1176.1 ± 0.5 | 1144.1 ± 0.5
x1 = 0.3005 | 834.5 ± 0.27 | 826.62 ± 0.29 | 818.61 ± 0.32 | 1236.8 ± 0.5 | 1207.1 ± 0.5 | 1176.3 ± 0.5
x1 = 0.4012 | 846.38 ± 0.28 | 838.41 ± 0.31 | 830.22 ± 0.33 | 1264.9 ± 0.6 | 1234.4 ± 0.6 | 1205.1 ± 0.6
x1 = 0.5051 | 856.62 ± 0.3 | 848.64 ± 0.32 | 840.29 ± 0.35 | 1290.4 ± 0.6 | 1259.8 ± 0.6 | 1231.3 ± 0.6
x1 = 0.6098 | 864.64 ± 0.31 | 856.77 ± 0.34 | 848.47 ± 0.37 | 1309.3 ± 0.7 | 1279.1 ± 0.7 | 1251 ± 0.7
x1 = 0.7086 | 871.01 ± 0.33 | 863.28 ± 0.36 | 854.97 ± 0.38 | 1321 ± 0.7 | 1292 ± 0.7 | 1264.2 ± 0.7
x1 = 0.8031 | 875.81 ± 0.35 | 868.08 ± 0.38 | 859.92 ± 0.4 | 1329.8 ± 0.8 | 1300.4 ± 0.8 | 1271.8 ± 0.8
x1 = 0.9036 | 879.78 ± 0.37 | 871.92 ± 0.4 | 863.76 ± 0.42 | 1336.4 ± 0.8 | 1304.5 ± 0.8 | 1273.3 ± 0.8
x1 = 1 | 883.34 ± 0.4 | 874.99 ± 0.42 | 866.37 ± 0.44 | 1344.4 ± 0.9 | 1309.1 ± 0.9 | 1274.1 ± 0.9

CN(C)CCO [2-(N,N-dimethylamino)ethanol] + CO
[2]
Settings | mass density, 298.15 K [kg/m3] | mass density, 308.15 K [kg/m3] | mass density, 318.15 K [kg/m3] | speed of sound, 298.15 K [m/s] | speed of sound, 308.15 K [m/s] | speed of sound, 318.15 K [m/s]
x1 = 0.0971 | 814.11 ± 0.26 | 806.11 ± 0.28 | 797.9 ± 0.31 | 1152.4 ± 0.5 | 1126.7 ± 0.5 | 1101.6 ± 0.5
x1 = 0.1983 | 835.29 ± 0.27 | 827.54 ± 0.3 | 819.51 ± 0.32 | 1204.7 ± 0.5 | 1180.5 ± 0.5 | 1156.2 ± 0.5
x1 = 0.2962 | 850.65 ± 0.28 | 842.65 ± 0.31 | 834.22 ± 0.34 | 1249.8 ± 0.6 | 1225.3 ± 0.6 | 1199.5 ± 0.6
x1 = 0.4039 | 862.04 ± 0.3 | 853.81 ± 0.32 | 845.26 ± 0.35 | 1290.2 ± 0.6 | 1265.5 ± 0.6 | 1238.9 ± 0.6
x1 = 0.502 | 868.4 ± 0.31 | 860.4 ± 0.34 | 852.01 ± 0.36 | 1312 ± 0.6 | 1288.1 ± 0.6 | 1261.3 ± 0.6
x1 = 0.607 | 873.13 ± 0.33 | 865.13 ± 0.35 | 856.89 ± 0.38 | 1322.4 ± 0.7 | 1299.3 ± 0.7 | 1272.9 ± 0.7
x1 = 0.7075 | 876.61 ± 0.34 | 868.67 ± 0.37 | 860.58 ± 0.39 | 1326.9 ± 0.7 | 1301.3 ± 0.7 | 1273.6 ± 0.7
x1 = 0.7999 | 879.06 ± 0.36 | 871.15 ± 0.38 | 862.98 ± 0.41 | 1330.6 ± 0.8 | 1303.1 ± 0.8 | 1273.9 ± 0.8
x1 = 0.9015 | 881.19 ± 0.38 | 873.28 ± 0.4 | 865.23 ± 0.43 | 1335 ± 0.8 | 1304.2 ± 0.8 | 1274 ± 0.8
x1 = 1 | 883.34 ± 0.4 | 874.99 ± 0.42 | 866.37 ± 0.44 | 1344.4 ± 0.9 | 1309.1 ± 0.9 | 1274.1 ± 0.9

CCO [ethanol]
[1]
Settings | mass density [kg/m3] | speed of sound [m/s]
298.15 K | 785.48 ± 0.23 | 1143.2 ± 0.1
308.15 K | 776.82 ± 0.26 | 1109.6 ± 0.1
318.15 K | 768.08 ± 0.29 | 1075.5 ± 0.1

CCO [ethanol] + CN(C)CCO
[2], x2 = 0
Settings | mass density [kg/m3] | speed of sound [m/s]
298.15 K | 785.48 ± 0.23 | 1143.2 ± 0.4
308.15 K | 776.82 ± 0.26 | 1109.6 ± 0.4
318.15 K | 768.08 ± 0.29 | 1075.5 ± 0.4

CO [methanol]
[1]
Settings | mass density [kg/m3] | speed of sound [m/s]
298.15 K | 786.74 ± 0.24 | 1100.7 ± 0.2
308.15 K | 777.45 ± 0.26 | 1068.2 ± 0.2
318.15 K | 768.01 ± 0.29 | 1037 ± 0.2

CO [methanol] + CN(C)CCO
[2], x2 = 0
Settings | mass density [kg/m3] | speed of sound [m/s]
298.15 K | 786.74 ± 0.24 | 1100.7 ± 0.5
308.15 K | 777.45 ± 0.26 | 1068.2 ± 0.5
318.15 K | 768.01 ± 0.29 | 1037 ± 0.5
